In US10023570B2 (Array BioPharma, Inc., priority 2015, dated 2018) one finds IC50 data, which are given here for 21 compounds.

Assay [1] deals with N-terminal GST tagged recombinant human RET cytoplasmic domain (aa 658-end), wild type RET kinase (Homo sapiens (Human), UniProt P07949). The assay can be described thus: RET Enzyme Assay (HTRF KinEASE-TK), wild type RET. Type of assay: biochemical. Conditions: wild type RET, 1 mM ATP. In general terms: In TR-FRET formats the signal depends on donor and acceptor labels being close together.
Sequence of N-terminal GST tagged recombinant human RET cytoplasmic domain (aa 658-end), wild type RET kinase (P07949 658-1114): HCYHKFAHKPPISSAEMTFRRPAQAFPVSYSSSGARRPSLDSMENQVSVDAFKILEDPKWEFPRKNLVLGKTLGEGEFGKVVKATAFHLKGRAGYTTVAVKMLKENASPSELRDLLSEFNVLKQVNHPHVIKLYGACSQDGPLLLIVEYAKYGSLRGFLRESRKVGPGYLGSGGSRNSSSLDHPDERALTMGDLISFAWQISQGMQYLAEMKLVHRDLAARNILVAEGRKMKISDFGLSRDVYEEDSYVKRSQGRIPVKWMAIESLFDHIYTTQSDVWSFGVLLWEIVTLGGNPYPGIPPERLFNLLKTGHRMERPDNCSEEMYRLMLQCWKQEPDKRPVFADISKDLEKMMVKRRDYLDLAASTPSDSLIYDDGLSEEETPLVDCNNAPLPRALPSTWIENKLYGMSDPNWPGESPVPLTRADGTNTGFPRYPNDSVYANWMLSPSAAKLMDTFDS

For assay [2], the target named is Kif5b-RET fusion protein in HEK-293 cells (Homo sapiens, UniProt P07949). The assay can be described thus: cell-based.
Sequence of Kif5b-RET fusion protein in HEK-293 cells (P07949 29-1114 limits assumed): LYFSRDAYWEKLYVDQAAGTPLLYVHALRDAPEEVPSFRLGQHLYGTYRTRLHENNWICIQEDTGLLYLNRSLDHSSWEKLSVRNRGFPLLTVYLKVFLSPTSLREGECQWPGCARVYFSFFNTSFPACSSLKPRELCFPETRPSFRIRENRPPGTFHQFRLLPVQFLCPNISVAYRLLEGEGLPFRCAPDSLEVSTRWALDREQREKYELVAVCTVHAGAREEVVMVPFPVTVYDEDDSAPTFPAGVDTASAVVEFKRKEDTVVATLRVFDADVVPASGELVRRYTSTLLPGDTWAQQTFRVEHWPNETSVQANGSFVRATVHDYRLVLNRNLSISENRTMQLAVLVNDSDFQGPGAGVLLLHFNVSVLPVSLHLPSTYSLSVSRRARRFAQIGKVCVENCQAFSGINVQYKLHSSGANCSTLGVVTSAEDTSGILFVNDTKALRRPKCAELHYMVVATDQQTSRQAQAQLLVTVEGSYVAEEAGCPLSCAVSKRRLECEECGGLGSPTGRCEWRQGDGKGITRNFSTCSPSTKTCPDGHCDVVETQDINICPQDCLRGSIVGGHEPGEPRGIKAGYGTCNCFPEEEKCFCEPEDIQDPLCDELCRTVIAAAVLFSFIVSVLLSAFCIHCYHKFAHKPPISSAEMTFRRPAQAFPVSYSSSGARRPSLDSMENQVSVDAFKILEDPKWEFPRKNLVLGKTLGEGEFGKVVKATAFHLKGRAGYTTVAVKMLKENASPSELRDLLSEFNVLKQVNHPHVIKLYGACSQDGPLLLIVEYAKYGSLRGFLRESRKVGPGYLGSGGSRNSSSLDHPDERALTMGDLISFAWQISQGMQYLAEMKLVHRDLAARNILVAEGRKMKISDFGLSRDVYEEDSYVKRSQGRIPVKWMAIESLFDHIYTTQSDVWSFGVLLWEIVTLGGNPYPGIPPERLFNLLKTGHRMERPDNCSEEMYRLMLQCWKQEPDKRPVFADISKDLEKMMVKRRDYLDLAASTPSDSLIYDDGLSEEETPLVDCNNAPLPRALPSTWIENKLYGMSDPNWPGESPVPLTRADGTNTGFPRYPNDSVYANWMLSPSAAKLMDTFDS
The target of assay [3] is human KDR protein in HEK-293 cells (Homo sapiens (Human), UniProt P35968). The assay can be described thus: KDR Cell Assay (phospho-KDR in HEK-293 cells expressing inducible KDR). Conditions: pKDR Cell HEK 10% FBS IC50, HEK-293 cells expressing inducible KDR, VEGF stimulated. It counts as cell-based. Put shortly:
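HEK-293 cells with inducible human KDR were treated with compound for 1 h in DMEM (0.25% DMSO final), then lysed. Phospho-KDR was quantified by Meso Scale immunoassay, expressed as percent of control, and IC50 taken where a 4-parameter logistic fit crossed 50 POC.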

Setting [4] is: HEK-293 cells expressing Kif5b-RET, read-out: KIF5B-RET pTYR1062 Cell IC50.
[5] abbreviates: HEK-293 cells expressing Kif5b-RET, phospho-RET(Tyr1062), read-out: KIF5B-RET pTYR1062 Cell IC50.

Each structure is given as a SMILES string. Structures can show the parent of a compound that is named as a salt. Where two headings read alike, the source gives them in different places.

Sequence of human KDR protein in HEK-293 cells (P35968 20-1356): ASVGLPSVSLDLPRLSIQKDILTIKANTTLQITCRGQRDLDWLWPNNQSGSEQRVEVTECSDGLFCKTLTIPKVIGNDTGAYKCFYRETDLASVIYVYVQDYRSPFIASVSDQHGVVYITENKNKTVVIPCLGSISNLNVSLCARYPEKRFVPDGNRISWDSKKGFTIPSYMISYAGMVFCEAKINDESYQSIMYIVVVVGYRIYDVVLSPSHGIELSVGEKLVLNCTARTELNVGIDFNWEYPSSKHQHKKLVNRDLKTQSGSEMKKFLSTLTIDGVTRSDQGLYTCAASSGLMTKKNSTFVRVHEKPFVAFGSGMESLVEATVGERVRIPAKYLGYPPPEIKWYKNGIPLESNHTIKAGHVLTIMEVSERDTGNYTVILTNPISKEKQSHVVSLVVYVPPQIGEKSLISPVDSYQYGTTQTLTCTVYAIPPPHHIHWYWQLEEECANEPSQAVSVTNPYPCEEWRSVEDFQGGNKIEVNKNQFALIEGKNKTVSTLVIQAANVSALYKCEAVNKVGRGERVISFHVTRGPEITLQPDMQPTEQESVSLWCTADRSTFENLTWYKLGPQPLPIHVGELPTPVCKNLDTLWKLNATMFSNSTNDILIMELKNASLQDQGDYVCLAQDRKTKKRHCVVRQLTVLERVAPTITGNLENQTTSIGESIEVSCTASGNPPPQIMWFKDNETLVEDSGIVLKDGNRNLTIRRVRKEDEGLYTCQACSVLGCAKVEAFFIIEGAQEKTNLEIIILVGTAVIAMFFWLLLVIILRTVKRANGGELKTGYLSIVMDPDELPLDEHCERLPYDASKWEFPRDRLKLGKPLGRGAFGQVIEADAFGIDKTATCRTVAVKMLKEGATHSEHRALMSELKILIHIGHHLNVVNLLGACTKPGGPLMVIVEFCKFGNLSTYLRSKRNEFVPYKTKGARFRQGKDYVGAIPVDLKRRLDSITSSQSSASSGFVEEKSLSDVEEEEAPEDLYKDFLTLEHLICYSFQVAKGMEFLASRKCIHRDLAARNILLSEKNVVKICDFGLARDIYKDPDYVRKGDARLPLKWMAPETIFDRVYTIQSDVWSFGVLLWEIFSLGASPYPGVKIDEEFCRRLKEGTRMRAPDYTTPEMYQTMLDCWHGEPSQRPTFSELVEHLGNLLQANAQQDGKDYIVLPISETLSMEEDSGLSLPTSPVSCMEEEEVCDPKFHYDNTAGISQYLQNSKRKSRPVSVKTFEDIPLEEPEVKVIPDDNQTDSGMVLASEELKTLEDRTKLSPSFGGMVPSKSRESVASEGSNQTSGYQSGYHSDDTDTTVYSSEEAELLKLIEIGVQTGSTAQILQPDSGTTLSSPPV

With `N#Cc1cnn2cc(-c3cn[nH]c3)cc(-c3ccc(N4CCN(Cc5ccccc5)CC4)nc3)c12` [Example 591, 4-(6-(4-benzylpiperazin-1-yl)pyridin-3-yl)-6-(1H-pyrazol-4-yl)pyrazolo[1,5-a]pyridine-3-carbonitrile], the IC50 (in general, the concentration needed to halve the response being measured) in assay [1] came to 5.7 nM; in assay [2] (setting [4]) it was 4.1 nM; in assay [3], 1490 nM.

Consider `Cn1cc(-c2cc(-c3ccc(N4CCN(CC(O)C(C)(C)C)CC4)nc3)c3c(C#N)cnn3c2)cn1` (stereo not drawn) [Example 148, 4-(6-(4-(2-hydroxy-3,3-dimethylbutyl)piperazin-1-yl)pyridin-3-yl)-6-(1-methyl-1H-pyrazol-4-yl)pyrazolo[1,5-a]pyridine-3-carbonitrile], for which the figures for the IC50 in assay [1], in assay [2] (setting [5]) and in assay [3] (10% FBS) were 19.8 nM, 46.7 nM and 1060 nM, respectively.

As to `Cn1cc(-c2cc(-c3ccc(N4CCN(C(=O)CC(C)(C)O)CC4)nc3)c3c(C#N)cnn3c2)cn1` [Example 79, 4-(6-(4-(3-hydroxy-3-methylbutanoyl)piperazin-1-yl)pyridin-3-yl)-6-(1-methyl-1H-pyrazol-4-yl)pyrazolo[1,5-a]pyridine-3-carbonitrile], the figures for the IC50 in assay [1], in assay [2] (setting [5]) and in assay [3] (10% FBS) were 14.5 nM, 31.3 nM and 1260 nM, respectively.

In the case of `CC(C)CN(C)C(=O)C1CCN(c2ccc(-c3cc(-c4cnn(C)c4)cn4ncc(C#N)c34)cn2)CC1` [Example 244, 1-(5-(3-cyano-6-(1-methyl-1H-pyrazol-4-yl)pyrazolo[1,5-a]pyridin-4-yl)pyridin-2-yl)-N-isobutyl-N-methylpiperidine-4-carboxamide], the IC50 was 20.9 nM in assay [1], 69.2 nM in assay [2] (setting [5]) and 660 nM in assay [3] (10% FBS).

For `COCC(=O)N1CCN(c2ccc(-c3cc(-c4cnn(C)c4)cn4ncc(C#N)c34)cn2)CC1` [Example 40, 4-(6-(4-(2-methoxyacetyl)piperazin-1-yl)pyridin-3-yl)-6-(1-methyl-1H-pyrazol-4-yl)pyrazolo[1,5-a]pyridine-3-carbonitrile 2,2,2-trifluoroacetate], the concentration for half-maximal inhibition (IC50) came out at 13.7 nM in assay [1], 11.2 nM in assay [2] (read-out: KIF5B-RET pTYR1062 Cell IC50) and 221 nM in assay [3] (10% FBS).

As for `COC1CCN(c2ccc(-c3cc(-c4cnn(C)c4)cn4ncc(C#N)c34)cn2)CC1` [Example 198, 4-(6-(4-methoxypiperidin-1-yl)pyridin-3-yl)-6-(1-methyl-1H-pyrazol-4-yl)pyrazolo[1,5-a]pyridine-3-carbonitrile], the IC50 in assay [1] was 14.3 nM; in assay [2] (setting [5]), 25.3 nM; in assay [3] (10% FBS), 659 nM.

Turning to `C[C@@H](NC(=O)C1CCN(c2ccc(-c3cc(-c4cnn(C)c4)cn4ncc(C#N)c34)cn2)CC1)C(F)(F)F` [Example 233, (R)-1-(5-(3-cyano-6-(1-methyl-1H-pyrazol-4-yl)pyrazolo[1,5-a]pyridin-4-yl)pyridin-2-yl)-N-(1,1,1-trifluoropropan-2-yl)piperidine-4-carboxamide], the half-inhibitory concentration (IC50) is 13.6 nM in assay [1], 27.3 nM in assay [2] (setting [5]) and 511 nM in assay [3] (10% FBS).

For `COc1ccc(CN2CCN(c3ccc(-c4cc(-c5cnn(C[C@@H](C)O)c5)cn5ncc(C#N)c45)cn3)CC2)cn1` [Example 700, (R)-6-(1-(2-hydroxypropyl)-1H-pyrazol-4-yl)-4-(6-(4-((6-methoxypyridin-3-yl)methyl)piperazin-1-yl)pyridin-3-yl)pyrazolo[5-a]pyridine-3-carbonitrile], the IC50 in assay [1] amounted to 16.8 nM; in assay [2] (setting [4]), 5.3 nM; in assay [3] it was 347 nM.

Turning to `COCC(C)NC(=O)C1CCN(c2ccc(-c3cc(-c4cnn(C)c4)cn4ncc(C#N)c34)cn2)CC1` (stereo not drawn) [Example 232, 1-(5-(3-cyano-6-(1-methyl-1H-pyrazol-4-yl)pyrazolo[1,5-a]pyridin-4-yl)pyridin-2-yl)-N-(1-methoxypropan-2-yl)piperidine-4-carboxamide], the IC50 in assay [1] was 12.1 nM; in assay [2] (setting [5]), 24.4 nM; in assay [3] (10% FBS) it was 812 nM.

Consider `CCC1(C(=O)NC(C)C)CCN(c2ccc(-c3cc(-c4cnn(C)c4)cn4ncc(C#N)c34)cn2)CC1` [Example 256, 1-(5-(3-cyano-6-(1-methyl-1H-pyrazol-4-yl)pyrazolo[1,5-a]pyridin-4-yl)pyridin-2-yl)-4-ethyl-N-isopropylpiperidine-4-carboxamide], for which the IC50 in assay [1] was determined as 12.9 nM; in assay [2] (setting [5]), 4.5 nM; in assay [3] (10% FBS) it was 735 nM.

`COc1cccnc1CN1CCN(c2ccc(-c3cc(-c4cnn(C)c4)cn4ncc(C#N)c34)cn2)CC1` [Example 463, 4-(6-(4-((3-methoxypyridin-2-yl)methyl)piperazin-1-yl)pyridin-3-yl)-6-(1-methyl-1H-pyrazol-4-yl)pyrazolo[1,5-a]pyridine-3-carbonitrile formate]: the concentration for half-maximal inhibition (IC50) in assay [1] stood at 9.7 nM; in assay [2], 17.7 nM; in assay [3], 678 nM.

As to `CCC1(C(=O)NC(C)C)CCN(c2ccc(-c3cc(-c4cnn(C)c4C)cn4ncc(C#N)c34)cn2)CC1` [Example 597, 1-(5-(3-cyano-6-(1,5-dimethyl-1H-pyrazol-4-yl)pyrazolo[1,5-a]pyridin-4-yl)pyridin-2-yl)-4-ethyl-N-isopropylpiperidine-4-carboxamide], the half-inhibitory concentration (IC50) in assay [1] was found to be 34 nM; in assay [2] (setting [4]), 39.7 nM; in assay [3], 830 nM.

On to `CC(C)CNC(=O)N1CCN(c2ccc(-c3cc(-c4cnn(C)c4)cn4ncc(C#N)c34)cn2)CC1` [Example 133, 4-(5-(3-cyano-6-(1-methyl-1H-pyrazol-4-yl)pyrazolo[1,5-a]pyridin-4-yl)pyridin-2-yl)-N-isobutylpiperazine-1-carboxamide], for which the results for the IC50 in assay [1], in assay [2] (setting [5]) and in assay [3] (10% FBS) were 4.3 nM, 1.7 nM and 147 nM, respectively.

For the compound `C[C@H](O)C(=O)N1CCN(c2ccc(-c3cc(-c4cnn(C)c4)cn4ncc(C#N)c34)cn2)CC1` [Example 30, (S)-4-(6-(4-(2-hydroxypropanoyl)piperazin-1-yl)pyridin-3-yl)-6-(1-methyl-1H-pyrazol-4-yl)pyrazolo[1,5-a]pyridine-3-carbonitrile], the IC50 is 22.1 nM in assay [1], 124 nM in assay [2] (setting [5]) and 921 nM in assay [3] (10% FBS).

With `CCC(=O)N1CCN(c2ccc(-c3cc(-c4cnn(C)c4)cn4ncc(C#N)c34)cn2)CC1` [Example 67, 6-(1-methyl-1H-pyrazol-4-yl)-4-(6-(4-propionylpiperazin-1-yl)pyridin-3-yl)pyrazolo[1,5-a]pyridine-3-carbonitrile], the 50% inhibitory concentration (IC50) in assay [1] amounted to 19.4 nM; in assay [2] (setting [5]) it was 60.7 nM; in assay [3] (10% FBS), 522 nM.

For the compound `C[C@H](O)CC(=O)N1CCN(c2ccc(-c3cc(-c4cnn(C)c4)cn4ncc(C#N)c34)cn2)CC1` [Example 57, (S)-4-(6-(4-(3-hydroxybutanoyl)piperazin-1-yl)pyridin-3-yl)-6-(1-methyl-1H-pyrazol-4-yl)pyrazolo[1,5-a]pyridine-3-carbonitrile], the results for the half-maximal inhibitory concentration (IC50) in assay [1], in assay [2] (setting [5]) and in assay [3] (10% FBS) were 12.7 nM, 48.6 nM and 1040 nM, respectively.

As for `CC(C)CC(=O)N1CCN(c2ccc(-c3cc(-c4cnn(C)c4)cn4ncc(Cl)c34)cn2)CC1` [Example 646, 1-(4-(5-(3-chloro-6-(1-methyl-1H-pyrazol-4-yl)pyrazolo[1,5-a]pyridin-4-yl)pyridin-2-yl)piperazin-1-yl)-3-methylbutan-1-one], the 50% inhibitory concentration (IC50) in assay [1] was 15.6 nM; in assay [2] (setting [4]), 45.7 nM; in assay [3], 1960 nM.

On to `CC[C@H](CO)NC(=O)N1CCN(c2ccc(-c3cc(-c4cnn(C)c4)cn4ncc(C#N)c34)cn2)CC1` [Example 96, (R)-4-(5-(3-cyano-6-(1-methyl-1H-pyrazol-4-yl)pyrazolo[1,5-a]pyridin-4-yl)pyridin-2-yl)-N-(1-hydroxybutan-2-yl)piperazine-1-carboxamide], for which the IC50 in assay [1] came to 6.3 nM; in assay [2] (setting [5]) it was 51.9 nM; in assay [3] (10% FBS) it was 1560 nM.

In the case of `CC(C)C[C@@H](O)C(=O)N1CCN(c2ccc(-c3cc(-c4cnn(C)c4)cn4ncc(C#N)c34)cn2)CC1` [Example 53, (R)-4-(6-(4-(2-hydroxy-4-methylpentanoyl)piperazin-1-yl)pyridin-3-yl)-6-(1-methyl-1H-pyrazol-4-yl)pyrazolo[1,5-a]pyridine-3-carbonitrile], the IC50 in assay [1] was determined as 4.4 nM; in assay [2] (setting [5]), 9.9 nM; in assay [3] (10% FBS), 305 nM.

`C[C@H](NC(=O)C1CCN(c2ccc(-c3cc(-c4cnn(C)c4)cn4ncc(C#N)c34)cn2)CC1)C(F)(F)F` [Example 231, (S)-1-(5-(3-cyano-6-(1-methyl-1H-pyrazol-4-yl)pyrazolo[1,5-a]pyridin-4-yl)pyridin-2-yl)-N-(1,1,1-trifluoropropan-2-yl)piperidine-4-carboxamide]: the concentration for half-maximal inhibition (IC50) in assay [1] is 6.9 nM; in assay [2] (setting [5]) it was 5.6 nM; in assay [3] (10% FBS), 279 nM.

With `COCC(=O)N1CCN(c2ccc(-c3cc(-c4cnn(C)c4)cn4ncc(Cl)c34)cn2)CC1` [Example 329, 1-(4-(5-(3-chloro-6-(1-methyl-1H-pyrazol-4-yl)pyrazolo[1,5-a]pyridin-4-yl)pyridin-2-yl)piperazin-1-yl)-2-methoxyethanone], the 50% inhibitory concentration (IC50) was 23.2 nM in assay [1], 45.6 nM in assay [2] (setting [5]) and 381 nM in assay [3] (10% FBS).
